Data taken from PubChem BioAssay (NCI).
Values joined by “and” are separate entries in the source; they are usually repeats but may differ in a detail not shown here. Equal values may be shown once.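 Cultured in 96-well plates, cells were exposed to test compound for 48 hours across five concentrations. The concentration for 50% growth inhibition is given as GI50. TGI denotes the concentration required for complete inhibition of growth.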

test system: TK-10 renal; experiment: inhibition of tumour cell growth, NCI panel, 48 h

Row | Compound | TGI [µM] | GI50 [µM]
1 | O=C1[C@@H]2C(c3ccccc3F)=NO[C@@H]2C(=O)N1c1ccc(Cc2ccc(N3C(=O)[C@H]4C(c5ccccc5F)=NO[C@H]4C3=O)cc2)cc1 | > 31.6 | 
2 | C=CCc1ccc(Oc2cc(CC=C)c3c(c2O)O[C@@H](CO)[C@H]3c2ccc(O)c(-c3cc(CC=C)ccc3O)c2)cc1 | > 100 | 
3 | O=C(NCO)NCOCn1c(=O)n(CO)c(=O)n(CO)c1=O | > 100 | 
4 | Clc1ccc2c(c1)-c1c3c(nn1-c1ccccc1)-c1ccccc1SC3O2 (stereo unspecified) | > 100 | 
5 | O=C1OC2CCCC[C@@H]2C2C[C@]34CCCCC3[C@@H](C(=O)O4)C12 (stereo partly specified) | > 100 | 
6 | CN(C)c1cc[c]([Sn]([c]2ccc(N(C)C)cc2)([c]2ccc(N(C)C)cc2)[c]2ccc(N(C)C)cc2)cc1 | 31.4 | 15.7
7 | C=C1C(=O)OC2/C=C(\COC(C)=O)CCC(OC(C)=O)C3=CC(OC3=O)C12 (stereo unspecified) | 15.4 | 
8 | C/C(N=NC(=S)N(C)C)=C1\C=CC=CN1O | > 100 | 
9 | O=C1CCC(O)=C1N=Nc1ccccc1 | > 100 | 
10 | CCN(CC)c1ccc(N=Nc2ccc(-c3nc4ccc[n+](C)c4s3)cc2)cc1 | 34.5 | 
11 | NC(=O)NCc1c(C(N)=O)ncn1Cc1ccccc1 | > 100 | 
12 | O=C1CSC(/C(=N/Nc2ccccc2)c2nc3ccccc3[nH]2)=N1 | > 100 | 
13 | O=C(c1ccccc1)C1OC12C(=O)Nc1ccccc12 (stereo unspecified) | > 100 | 
14 | COc1ccc2nc(NC(=O)C(=O)C(C#N)c3ccc([N+](=O)[O-])cc3)sc2c1 (stereo unspecified) | > 100 | 
15 | O=C(O)[C@H](NS(=O)(=O)c1ccc([N+](=O)[O-])cc1)c1ccccc1 | > 100 | 
16 | CC(C)C[C@H](NC(=O)/C=C/Cn1ccc2ccccc2c1=O)B(O)O | 10.4 | 3.27
17 | S=C1OC2CCCC[C@H]2O1 (stereo partly specified) | > 100 | 
18 | O=C1/C(=C/c2cccc([N+](=O)[O-])c2)COc2ccc(Br)cc21 | > 100 | 
19 | CSC(C1c2ccccc2N(c2ccc(C)cc2)c2[nH]c(=O)n(C)c(=O)c21)S(=O)(=O)c1ccc(C)cc1 (stereo unspecified) | > 100 | 

Row | Compound | TGI [µM] | GI50 [µM]
20 | CCOC(=O)NC(=O)c1cn(CCCOC(=O)CCCCCCCCCCC(=O)OCCCn2cc(C(=O)NC(=O)OCC)c(=O)[nH]c2=O)c(=O)[nH]c1=O | > 100 | 
21 | O=c1cc(NC2CCN(CCCc3ccccc3)CC2)c2cc(Cl)ccc2o1 | 26.6 | 13.4
22 | COc1cc(/C=C(\C#N)c2ccccc2)cc(OC)c1 | > 100 | 
23 | N#Cc1cccnc1Cl | > 100 | 
24 | Nc1nc(F)nc2c1ncn2C1OC(CO)C(O)C1O (stereo unspecified) | > 100 | 
25 | CCCCCCCCCCCC(=O)OCC1OC(OC)C(NC(=O)N(CCCl)N=O)C(O)C1O (stereo unspecified) | 61 | 
26 | C=CC/C=C/C/C=C/CCCCCCCc1cccc(O)c1C(=O)O | > 100 | 
27 | CCn1c(SCc2ccc(C)cc2)nnc1-c1nn(-c2ccc(Cl)cc2Cl)c(-c2ccc(Cl)cc2)c1C | 10.9 | 2.61
28 | CCn1c(-c2ccc(OC(C)=O)cc2)c(C)c2cc(OC(C)=O)ccc21 | 74.3 | 
29 | O=c1cccc(C#CC#CC2=CCCCC2)o1 | 14.2 | 8.69
30 | COc1ccc(OC)c2c(C(=O)O)c(Cc3ccccc3)ccc12 | > 100 | 
31 | O=C(Nc1c(Cl)cc([N+](=O)[O-])cc1Cl)C(=O)C(C1OC(=O)c2ccccc21)[N+](=O)[O-] (stereo unspecified) | > 100 | 
32 | Cc1c(C(=O)/C=C/c2ccccc2)[n+](=O)c2ccccc2n1[O-] | 51.1 | 
33 | N#CC1CC2(C1)OCCS2 (stereo unspecified) | > 100 | 
34 | O=C1Nc2ccc(F)cc2/C1=C/c1ccc[nH]1 | > 25 | 14.4
35 | Br[C](Br)(Br)[Hg][c]1ccccc1 | 31.4 | 17.5
36 | C1C[OH+]CC[OH+]CC[OH+]CC[OH+]CC[OH+]1.[Cl-].[V] | > 100 | 83.5
37 | COc1ccc(CC2NCCc3cc(OC)c(OC)cc32)cc1Br (stereo unspecified) | > 89.8 | 
38 | CCOc1cc(C(C)(C)C)ccc1C1=N[C@@](C)(c2ccc(Cl)cc2)[C@@](C)(c2ccc(Cl)cc2)N1C(=O)N1CCN(CCCS(C)(=O)=O)CC1 | 46.9 | 10.3

test system: RPMI-8226 leukemia; experiment: inhibition of tumour cell growth, NCI panel, 48 h

Row | Compound | TGI | GI50 [µM]
39 | O=C1[C@@H]2C(c3ccccc3F)=NO[C@@H]2C(=O)N1c1ccc(Cc2ccc(N3C(=O)[C@H]4C(c5ccccc5F)=NO[C@H]4C3=O)cc2)cc1 | > 83.3 µM | 
40 | C=CCc1ccc(Oc2cc(CC=C)c3c(c2O)O[C@@H](CO)[C@H]3c2ccc(O)c(-c3cc(CC=C)ccc3O)c2)cc1 | > 100 µM | 
41 | O=C(NCO)NCOCn1c(=O)n(CO)c(=O)n(CO)c1=O | 68.4 µM | 
42 | Clc1ccc2c(c1)-c1c3c(nn1-c1ccccc1)-c1ccccc1SC3O2 (stereo unspecified) | > 100 µM | 
43 | CN(C)c1cc[c]([Sn]([c]2ccc(N(C)C)cc2)([c]2ccc(N(C)C)cc2)[c]2ccc(N(C)C)cc2)cc1 | 4.76 µM | 1.55
44 | C=C1C(=O)OC2/C=C(\COC(C)=O)CCC(OC(C)=O)C3=CC(OC3=O)C12 (stereo unspecified) | > 100 µM | 
45 | C/C(N=NC(=S)N(C)C)=C1\C=CC=CN1O | > 70.4 µM | 
46 | CCCSc1nc(COC(=O)NC)c(COC(=O)NC)n1C | 57.4 µM and > 94.9 µM | 
47 | CCN(CC)c1ccc(N=Nc2ccc(-c3nc4ccc[n+](C)c4s3)cc2)cc1 | 25.7 µM | 
48 | NC(=O)NCc1c(C(N)=O)ncn1Cc1ccccc1 | > 100 µM | 
49 | O=C(c1ccccc1)C1OC12C(=O)Nc1ccccc12 (stereo unspecified) | 84.9 µM | 
50 | COc1ccc2nc(NC(=O)C(=O)C(C#N)c3ccc([N+](=O)[O-])cc3)sc2c1 (stereo unspecified) | > 100 µM | 
51 | O=C(O)[C@H](NS(=O)(=O)c1ccc([N+](=O)[O-])cc1)c1ccccc1 | > 100 µM | 
52 | CC(C)C[C@H](NC(=O)/C=C/Cn1ccc2ccccc2c1=O)B(O)O | > 100 µM | 0.845
53 | S=C1OC2CCCC[C@H]2O1 (stereo partly specified) | > 100 µM | 
54 | O=C1/C(=C/c2cccc([N+](=O)[O-])c2)COc2ccc(Br)cc21 | 6.57 µM | 
55 | CSC(C1c2ccccc2N(c2ccc(C)cc2)c2[nH]c(=O)n(C)c(=O)c21)S(=O)(=O)c1ccc(C)cc1 (stereo unspecified) | > 100 µM | 
56 | CCOC(=O)NC(=O)c1cn(CCCOC(=O)CCCCCCCCCCC(=O)OCCCn2cc(C(=O)NC(=O)OCC)c(=O)[nH]c2=O)c(=O)[nH]c1=O | > 100 µM | 

Row | Compound | TGI | GI50 [µM]
57 | O=c1cc(NC2CCN(CCCc3ccccc3)CC2)c2cc(Cl)ccc2o1 | 43.4 µM | 16.5
58 | COc1cc(/C=C(\C#N)c2ccccc2)cc(OC)c1 | > 100 µM | 
59 | N#Cc1cccnc1Cl | > 100 µM | 
60 | Nc1nc(F)nc2c1ncn2C1OC(CO)C(O)C1O (stereo unspecified) | > 100 µM | 
61 | CCCCCCCCCCCC(=O)OCC1OC(OC)C(NC(=O)N(CCCl)N=O)C(O)C1O (stereo unspecified) | 29.6 µM | 
62 | C=CC/C=C/C/C=C/CCCCCCCc1cccc(O)c1C(=O)O | > 100 µM | 
63 | CCn1c(SCc2ccc(C)cc2)nnc1-c1nn(-c2ccc(Cl)cc2Cl)c(-c2ccc(Cl)cc2)c1C | 3.05 µM | 0.464
64 | CCn1c(-c2ccc(OC(C)=O)cc2)c(C)c2cc(OC(C)=O)ccc21 | 42.6 µM | 
65 | O=c1cccc(C#CC#CC2=CCCCC2)o1 | 5.83 µM | 2.19
66 | O=C(Nc1c(Cl)cc([N+](=O)[O-])cc1Cl)C(=O)C(C1OC(=O)c2ccccc21)[N+](=O)[O-] (stereo unspecified) | > 100 µM | 
67 | Cc1c(C(=O)/C=C/c2ccccc2)[n+](=O)c2ccccc2n1[O-] | 45.9 µM | 
68 | N#CC1CC2(C1)OCCS2 (stereo unspecified) | > 100 µM | 
69 | O=C1Nc2ccc(F)cc2/C1=C/c1ccc[nH]1 | > 25 µM | > 25
70 | Br[C](Br)(Br)[Hg][c]1ccccc1 | 70.6 µM | 18.9
71 | C1C[OH+]CC[OH+]CC[OH+]CC[OH+]CC[OH+]1.[Cl-].[V] | > 100 µM | > 100
72 | COc1ccc(CC2NCCc3cc(OC)c(OC)cc32)cc1Br (stereo unspecified) | 50.2 µM | 
73 | c1ccc(C2Nc3ccccc3C3OCCCC23)cc1 (stereo unspecified) | 60.2 µM | 
74 | CCOc1cc(C(C)(C)C)ccc1C1=N[C@@](C)(c2ccc(Cl)cc2)[C@@](C)(c2ccc(Cl)cc2)N1C(=O)N1CCN(CCCS(C)(=O)=O)CC1 | > 100 µM | 3.13

test system: NCI-H522 lung; experiment: inhibition of tumour cell growth, NCI panel, 48 h

Row | Compound | TGI [µM]
75 | O=C1[C@@H]2C(c3ccccc3F)=NO[C@@H]2C(=O)N1c1ccc(Cc2ccc(N3C(=O)[C@H]4C(c5ccccc5F)=NO[C@H]4C3=O)cc2)cc1 | > 100
76 | C=CCc1ccc(Oc2cc(CC=C)c3c(c2O)O[C@@H](CO)[C@H]3c2ccc(O)c(-c3cc(CC=C)ccc3O)c2)cc1 | 32.6
77 | Clc1ccc2c(c1)-c1c3c(nn1-c1ccccc1)-c1ccccc1SC3O2 (stereo unspecified) | 87.5
78 | O=C1OC2CCCC[C@@H]2C2C[C@]34CCCCC3[C@@H](C(=O)O4)C12 (stereo partly specified) | > 100
